Where a SMILES comes first, the peptide text is derived from it. [ ]: non-standard residue; d: D form.
Key:
[1] = system: non-malignant 7SM0032 cells; assay: TUNEL apoptosis assay, 7SM0032; format: cell-based, human; conditions: 7SM0032, same treatment (40 µM, 48 h), vs NB cells
Description: (§1) To measure cell growth, cells were seeded at 3×10^4/ml. After being allowed to attach overnight, cells were treated with various concentrations of the peptides for 72 h. Cell growth was measured by the CellTitor-Glo assay (Promega, Madison, WI) according to manufacturer's instruction. To measure apoptosis, cells were seeded at 1×10^5/ml onto a chamber slide. Once attached, cells were treated with the peptides for 48 h. Cells were fixed and analyzed by a TUNEL assay using the TMR red in situ cell death detection kit (Roche Diagnostics, Indianapolis, IN).

panel of NB cell lines = format: cell-based, human; conditions: 72 h
Description: The human NB cell lines, SK-N-DZ, SK-N-BE(2)c, SK-N-AS, SK-N-SH, and SK-N-FI were obtained from the American Type Culture Collection (Rockville, MD). Cells were maintained in DMEM with 10% fetal bovine serum (FBS), 100 units/ml penicillin, and 100 µg/ml streptomycin in the presence of 5% CO2 at 37°C. Human PBMCs from a healthy donor were purchased from Sanguine BioSciences (Valencia, CA) and grown in RPMI1640 with10% FBS, 100 units/ml penicillin, 100 µg/ml streptomycin, and 10 ng/ml IL-2 in the presence of 5% CO2 at 37°C. Human embryonic progenitor cell line 7SM0032 was acquired from Millipore (Billerica, MA) and grown in the hEPM-1 Media Kit purchased from the same company.
as §1

[2] = system: xenograft tumors derived from the SK-N-BE2(c) cells; assay: SK-N-BE(2)c xenograft tumor model in nude mice; format: in vivo, mouse; conditions: n = 10/group, intratumoral injection 3 times a week, vs PBS or R9-srbPep
Description: All experiments involving live animals were carried out in strict accordance with the recommendations in the Guide for the Care and Use of Laboratory Animals of the National Institutes of Health. The protocol (#11034) was reviewed and approved by the City of Hope Institutional Animal Care and Use Committee. Nude mice 6 weeks of age were purchased from the Jackson Laboratory (Bar Harbor, ME). SK-N-BE(2)c cells were harvested and washed twice in PBS. Cells were suspended in Matrigel (BD Biosciences) at 5×10^7/ml. 0.1 ml of suspended cells was subcutaneously injected into the right flank of each of 30 nude mice. Seven days after tumor inoculation, mice were randomly grouped into three groups with 10 mice in each group. The mice were treated with PBS, R9-srbPep, or R9-caPep 3 times a week by intratumoral injection. Tumor growth was measured weekly as well as at the end of the experiment by a dial caliper. Tumor volumes were estimated based on the length (L) and width (W) of the tumors (V = L×W^2×0.5). At the end of the experiment, tumors were isolated from sacrificed mice and their masses were measured.

PCNA and p21 interaction = PCNA and p21 interaction in vitro; format: binding; conditions: data not shown
SK-N-BE(2)c cells = assay: Clonogenic assay; format: cell-based, human; conditions: 3 dishes averaged
Description: Three hundred fifty SK-N-BE(2)c cells were seeded onto a 60-mm tissue culture dish. Once attached overnight, cells were treated with or without cisplatin for 2 h. Cells were washed twice with growth medium and were cultured in fresh medium with or without R9-caPep for 3 weeks to allow colony formation. The medium was changed every 3 d. The colonies formed under each treatment conditions were counted after being stained with 0.5% crystal violet.

[3] = system: PCNA and POLD3 co-localization in SK-N-AS NB cells; assay: PCNA/POLD3 co-localization, immunofluorescence; format: cell-based, human; conditions: synchronized, 30 µM peptide 6 h after mimosine release
Description: Cells were seeded at 1×10^5/ml onto a chamber slide and were allowed to attach overnight. To analyze the interaction of PCNA with FEN1, LIGI, or Pol ä, we first synchronize cells at the G1/S boundary. The synchronization is achieved by starving cells in medium containing 0.25% FBS for 24 h. Cells were further cultured in the complete medium containing 400 µM of mimosine for 24 h. To release cells into S phase, cells were washed and incubated in mimosine-free medium containing 30 µM R9-caPep or R9-srbPep for 6 h. We pre-determined that the majority of cells were in the S-phase 6 h after mimosine was removed (data not shown). Cells were fixed in ice-cold methanol:acetone (50%:50%) for 10 min or in 4% paraformaldehyde for 20 min at room temperature. Cells were incubated with a goat polyclonal anti-PCNA antibody (Santa Cruz) and a mouse monoclonal anti-FEN1 antibody (Santa Cruz), a mouse anti-POLD3 antibody (Sigma, St. Louis, MO), or a mouse anti-LIGI antibody (Abcam, Cambridge, MA) for 1 h at room temperature. After being washed with PBS, cells were incubated with Alexa Fluor 488 conjugated anti-mouse IgG and Alexa Fluor 555 conjugated anti-goat IgG antibodies (Invitrogen, Grand Island, NY) for 1 h. Cells were mounted in Vectashield with DAPI (Vector Labs, Burlingame, CA) and visualized by a confocal microscope.

## CC[C@H](C)[C@H](NC(=O)CNC(=O)[C@H](CC(C)C)NC(=O)[C@H](CS)NC(=O)[C@H](CS)NC(=O)[C@@H](CCCNC(=N)N)NC(=O)[C@@H](CCCNC(=N)N)NC(=O)[C@@H](CCCNC(=N)N)NC(=O)[C@@H](CCCNC(=N)N)NC(=O)[C@@H](CCCNC(=N)N)NC(=O)[C@@H](CCCNC(=N)N)NC(=O)[C@@H](CCCNC(=N)N)NC(=O)[C@@H](CCCNC(=N)N)NC(=O)[C@H](N)CCCNC(=N)N)C(=O)N1CCC[C@H]1C(=O)N[C@@H](CCC(=O)O)C(=O)N[C@@H](CCC(N)=O)C(=O)N[C@@H](CCC(=O)O)C(=O)N[C@@H](Cc1ccc(O)cc1)C(=O)O [R9-caPep] (H-[dR][dR][dR][dR][dR][dR][dR][dR][dR]CCLGIPEQEY-OH; N-terminus and C-terminus assumed)
[1]
  effect on cell survival in non-malignant cells: significantly less effect on cell cycle progression and cell survival
Panel of NB cell lines
  IC50: 10 to 32 µM
Panel of NB cell lines; CellTiter-Glo
  sensitivity of MYCN-amplified vs. non-amplified NB cell lines: NB cell lines with MYCN amplification were uniformly more sensitive to R9-caPep than NB cell lines without MYCN amplification
[2]; end of experiment
  tumor growth (tumor mass): significantly and nearly completely inhibited tumor growth
[2]; ** p<0.01
  tumor growth (tumor volume): significantly and nearly completely inhibited tumor growth
PCNA and p21 interaction
  effect on PCNA and p21 interaction: did not block PCNA and p21 interaction in vitro
SK-N-BE(2)c cells; 1 µM cisplatin 2 h, then 20 µM R9-caPep 3 weeks
  reduction of number of colonies, sequential cisplatin then R9-caPep: about 80%
SK-N-BE(2)c cells; R9-caPep alone 20 µM 3 weeks, or cisplatin alone 1 µM 2 h
  reduction of number of colonies, single agent: less than 30%
[3]
  recruitment of POLD3 to PCNA: did not seem to affect the recruitment of POLD3 to PCNA
